Experimental data reported in patent US20100222349A1, “QUINOLINE DERIVATIVES USED TO TREAT INFLAMMATORY AND ALLERGIC DISEASES” (Glaxo Group Limited, priority 2007, published 2010).

Columns and labels:
human H1 receptor = molecular target: T1, human H1 receptor (Homo sapiens, UniProt P35367); assay: Histamine H1 functional antagonist assay: determination of functional pKi values (FLIPR); assay type: cell-based; conditions: CHO cells expressing human H1 receptor, histamine at EC80, read-out: average pKi (pKb) at H1 (converted)
T1 construct: expressed in transfected cells
T1 sequence (P35367 whole entry): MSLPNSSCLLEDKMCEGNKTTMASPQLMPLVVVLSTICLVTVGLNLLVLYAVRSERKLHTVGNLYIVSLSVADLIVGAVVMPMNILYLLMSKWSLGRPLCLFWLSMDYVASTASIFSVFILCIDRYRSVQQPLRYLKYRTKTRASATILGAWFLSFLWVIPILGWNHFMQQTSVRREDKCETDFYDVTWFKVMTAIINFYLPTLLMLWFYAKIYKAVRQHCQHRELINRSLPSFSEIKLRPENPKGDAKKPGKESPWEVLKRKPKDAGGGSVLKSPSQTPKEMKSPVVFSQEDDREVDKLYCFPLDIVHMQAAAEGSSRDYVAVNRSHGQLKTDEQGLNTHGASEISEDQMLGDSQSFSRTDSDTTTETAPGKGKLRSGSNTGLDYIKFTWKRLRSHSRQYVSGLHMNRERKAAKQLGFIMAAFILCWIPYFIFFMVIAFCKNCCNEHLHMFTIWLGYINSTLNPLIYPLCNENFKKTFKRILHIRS
Description: The human H1 receptor is cloned using known procedures described in the literature [Biochem. Biophys. Res. Commun., 201(2):894 (1994)]. Chinese hamster ovary (CHO) cells stably expressing the human H1 receptor are generated according to known procedures described in the literature [Br. J. Pharmacol., 117(6):1071 (1996)]. The histamine H1 cell line is seeded into non-coated black-walled clear bottom 384-well tissue culture plates in alpha minimum essential medium (Gibco/Invitrogen, cat no. 22561-021), supplemented with 10′)/0 dialysed foetal calf serum (Gibco/Invitrogen cat no. 12480-021) and 2 mM L-glutamine (Gibco/Invitrogen cat no 25030-024) and is maintained overnight at 5% CO2, 37° C. Excess medium is removed from each well to leave 10 μl. 30 μl loading dye (250 μM Brilliant Black, 2 μM Fluo-4 diluted in Tyrodes buffer+probenecid (145 mM NaCl, 2.5 mM KCl, 10 mM HEPES, 10 mM D-glucose, 1.2 mM MgCl2, 1.5 mM CaCl2, 2.5 mM probenecid, pH adjusted to 7.40 with NaOH 1.0 M)) is added to each well and the plates are incubated for 60 min at 5% CO2, 37° C. 10 μl of test compound, diluted to the required concentration in Tyrodes buffer+probenecid (or 10 μl Tyrodes buffer+probenecid as a control) is added to each well and the plate is incubated for 30 min at 37° C., 5% CO2. The plates are then placed into a FLIPR™(Molecular Devices, UK) to monitor cell fluorescence (λex=488 nm, λEM=540 nm) in the manner described in Sullivan et al., (In: Lambert DG (ed.), Calcium Signaling Protocols, New Jersey: Humana Press, 1999, 125-136) before and after the addition of 10 μl histamine at a concentration that results in the final assay concentration of histamine being EC80. Functional antagonism is indicated by a suppression of histamine induced increase in fluorescence, as measured by the FLIPR™ system (Molecular Devices). By means of concentration effect curves, functional affinities are determined using standard pharmacological mathematical analysis.

histamine H3 receptor = molecular target: T2, histamine H3 receptor (Homo sapiens, UniProt Q9Y5N1); assay: Histamine H3 functional antagonist assay (GTPγS, membranes); assay type: biochemical; conditions: CHO K1 membranes, [35S]-GTPγS, histamine at EC80; read-out: average pKi (pKb) at H3 (converted)
T2 construct: expressed in transfected cells; host or cells: CHO K1 cells with pSwitch/pGeneH3 (GeneSwitch, mifepristone-induced), clone 3H3; membrane preparation
T2 sequence (Q9Y5N1 whole entry, species assumed): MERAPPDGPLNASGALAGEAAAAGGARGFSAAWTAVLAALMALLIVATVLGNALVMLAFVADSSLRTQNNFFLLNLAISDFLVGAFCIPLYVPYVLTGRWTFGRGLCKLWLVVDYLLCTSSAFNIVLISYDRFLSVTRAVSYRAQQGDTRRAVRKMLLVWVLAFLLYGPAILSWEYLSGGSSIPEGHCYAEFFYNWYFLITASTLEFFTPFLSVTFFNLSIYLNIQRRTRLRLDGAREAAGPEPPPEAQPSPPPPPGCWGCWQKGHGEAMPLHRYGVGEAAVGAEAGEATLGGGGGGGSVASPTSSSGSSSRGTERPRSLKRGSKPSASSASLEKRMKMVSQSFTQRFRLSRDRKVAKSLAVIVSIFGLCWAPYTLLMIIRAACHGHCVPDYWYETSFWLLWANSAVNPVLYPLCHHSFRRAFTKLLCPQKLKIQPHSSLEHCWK
Description: The histamine H3 cDNA is isolated from its holding vector, pcDNA3.1 TOPO (InVitrogen), by restriction digestion of plasmid DNA with the enzymes BamH1 and Not-1 and is ligated into the inducible expression vector pGene (InVitrogen) digested with the same enzymes. The GeneSwitchTM system (a system where in transgene expression is switched off in the absence of an inducer and switched on in the presence of an inducer) is performed as described in U.S. Pat. Nos. 5,364,791; 5,874,534; and 5,935,934. Ligated DNA is transformed into competent DH5α E. coli host bacterial cells and is plated onto Luria Broth (LB) agar containing ZeocinTM (an antibiotic which allows the selection of cells expressing the sh ble gene which is present on pGene and pSwitch) at 50 μgml^-1. Colonies containing the re-ligated plasmid are identified by restriction analysis. DNA for transfection into mammalian cells is prepared from 250 ml cultures of the host bacterium containing the […]3 plasmid and is isolated using a DNA preparation kit (Qiagen Midi-Prep) as per manufacturers guidelines (Qiagen). CHO K1 cells previously transfected with the pSwitch regulatory plasmid (InVitrogen) are seeded at 2×10^6 cells per T75 flask in Complete Medium, containing Hams F12 (GIBCOBRL, Life Technologies) medium supplemented with 10% v/v dialysed foetal bovine serum, L-glutamine, and hygromycin (100 μgml^-1), 24 h prior to use. Plasmid DNA is transfected into the cells using Lipofectamine plus according to the manufacturer's guidelines (InVitrogen). 48 h post transfection, cells are placed into complete medium supplemented with 500 μgml^-1 ZeocinTM. 10-14 days post selection, 10 nM Mifepristone (InVitrogen) is added to the culture medium to induce the expression of the receptor. 18 h post induction, cells are detached from the flask using ethylenediamine tetra-acetic acid (EDTA; 1:5000; InVitrogen), following several washes with PBS, pH 7.4 and are resuspended in Sorting Medium containing Minimum Essential Medium (MEM), without phenol red, and are supplemented with Earles salts and 3% Foetal Clone II (Hyclone). Approximately 1×10^7 cells are examined for receptor expression by staining with a rabbit polyclonal antibody, 4a, raised against the N-terminal domain of the histamine H3 receptor, are incubated on ice for 60 min, followed by two washes in sorting medium. Receptor bound antibody is detected by incubation of the cells for 60 min on ice with a goat anti rabbit antibody, conjugated with Alexa 488 fluorescence marker (Molecular Probes). Following two further washes with Sorting Medium, cells are filtered through a 50 μm FilconTM (BD Biosciences) and then are analysed on a FACS Vantage SE Flow Cytometer fitted with an Automatic Cell Deposition Unit. Control cells are non-induced cells treated in an analogous manner. Positively stained cells are sorted as single cells into 96-well plates, containing Complete Medium containing 500 μgml^-1 ZeocinTM and are allowed to expand before reanalysis for receptor expression via antibody and ligand binding studies. One clone, 3H3, is selected for membrane preparation. All steps of the protocol are carried out at 4° C. and with pre-cooled reagents. The cell pellet is resuspended in 10 volumes of homogenisation buffer (50 mM N-2-hydroxyethylpiperazine-N'-2-ethanesulfonic acid (HEPES), 1 mM ethylenediamine tetra-acetic acid (EDTA), pH 7.4 with KOH, supplemented with 10^-6 M leupeptin (acetyl-leucyl-leucyl-arginal; Sigma L2884), 25 μgml^-1 bacitracin (Sigma B0125), 1 mM phenylmethylsulfonyl fluoride (PMSF) and 2×10^-6 M pepstain A (Sigma)). The cells are then homogenised by 2×15 sec bursts in a 1 L glass Waring blender, followed by centrifugation at 500 g for 20 min. The supernatant is then spun at 48,000 g for 30 min. The pellet is resuspended in homogenisation buffer (4× the volume of the original cell pellet) by vortexing for 5 sec, followed by homogenisation in a Dounce homogeniser (10-15 strokes). […]

Ki (human H1 receptor)	Ki (histamine H3 receptor)	Compound
< 100 nM	> 316 nM	CCCCCCc1cc(OC2CCN(C[C@H]3CC[C@H](C(=O)NCC(C)(C)C)CC3)CC2)c2ncccc2c1 [Example 52, trans-N-(2,2-dimethylpropyl)-4-({4-[(6-hexyl-8-quinolinyl)oxy]-1-piperidinyl}methyl)cyclohexane carboxamide]
< 100 nM	> 316 nM	CCCCCCc1cc(OC2CCN(C[C@H]3CC[C@H](C(=O)N4CCOCC4)CC3)CC2)c2ncccc2c1 [Example 57, 6-hexyl-8-[(1-{[trans-4-(4-morpholinylcarbonyl)cyclohexyl]methyl}-4-piperidinyl)oxy]quinoline]
< 10 nM	> 316 nM	CCCCc1cc(OC2CCN(CCCNC(=O)CCOC)CC2)c2ncccc2c1 [Example 82, N-(3-{4-[(6-butyl-8-quinolinyl)oxy]-1-piperidinyl}propyl)-3-(methyloxy) propanamide]
< 10 nM	> 316 nM	CCCCc1cc(OC2CCN(CCCNC(=O)CCC)CC2)c2ncccc2c1 [Example 70, N-(3-{4-[(6-butyl-8-quinolinyl)oxy]-1-piperidinyl}propyl) butanamide]
< 10 nM	> 316 nM	CCCCc1cc(OC2CCN(CCC(=O)N3CCCCC3)CC2)c2ncccc2c1 [Example 18, 6-butyl-8-({1-[3-oxo-3-(1-piperidinyl)propyl]-4-piperidinyl}oxy) quinoline]
< 10 nM	> 316 nM	CCCCCc1cc(OC2CCN(CCCC(=O)NC(C)(C)C)CC2)c2ncccc2c1 [Example 88, N-(1,1-dimethylethyl)-4-{4-[(6-pentyl-8-quinolinyl)oxy]-1-piperidinyl}butanamide]
< 10 nM	> 3160 nM	CCCCc1cc(OC2CCN(CCCC(=O)NCCCOC)CC2)c2ncccc2c1 [Example 21, 4-{4-[(6-butyl-8-quinolinyl)oxy]-1-piperidinyl}-N-[3-(methyloxy)propyl] butanamide]
< 10 nM	> 316 nM	CCCCc1cc(OC2CCN(CCCCNC(=O)CCOC)CC2)c2ncccc2c1 [Example 85, N-(4-{4-[(6-butyl-8-quinolinyl)oxy]-1-piperidinyl}butyl)-3-(methyloxy) propanamide]
< 10 nM	> 316 nM	CCCCc1cc(O[C@@H]2CCN(CCC(=O)N(CC)CC)C2)c2ncccc2c1 [Example 35, 3-{(3R)-3-[(6-butyl-8-quinolinyl)oxy]-1-pyrrolidinyl}-N,N-diethylpropanamide]
< 100 nM	> 316 nM	CCCCCCc1cc(OC2CCN(C[C@H]3CC[C@H](C(=O)N(CC)CC)CC3)CC2)c2ncccc2c1 [Example 53, trans-N,N-diethyl-4-({4-[(6-hexyl-8-quinolinyl)oxy]-1-piperidinyl}methyl) cyclohexane carboxamide]
< 10 nM	> 316 nM	CCCCc1cc(OC2CCN(CCCNC(=O)CC)CC2)c2ncccc2c1 [Example 86, N-(3-{4-[(6-Butyl-8-quinolinyl)oxy]-1-piperidinyl}propyl)propanamide]
< 10 nM	> 3160 nM	CCCCc1cc(OC2CCN(CCCC(=O)NC(C)C)CC2)c2ncccc2c1 [Example 25, 4-{4-[(6-butyl-8-quinolinyl)oxy]-1-piperidinyl}-N-(1-methylethyl)butanamide]
< 100 nM	> 316 nM	CCCCc1cc(OC2CCN(C[C@H]3CC[C@H](C(=O)NCC(C)(C)C)CC3)CC2)c2ncccc2c1 [Example 46, trans-4-({4-[(6-butyl-8-quinolinyl)oxy]-1-piperidinyl}methyl)-N-(2,2-dimethylpropyl) cyclohexane carboxamide]
< 10 nM	> 316 nM	CCCCc1cc(OC2CCN(CCCNC(=O)C(C)C)CC2)c2ncccc2c1 [Example 68, N-(3-{4-[(6-butyl-8-quinolinyl)oxy]-1-piperidinyl}propyl)-2-methyl propanamide]
< 10 nM	> 3160 nM	CCCCc1cc(OC2CCN(CCC(=O)NC(C)C)CC2)c2ncccc2c1 [Example 19, 3-{4-[(6-butyl-8-quinolinyl)oxy]-1-piperidinyl}-N-(1-methylethyl) propanamide]
< 100 nM	> 3160 nM	CCCCc1cc(OC2CCN(CC(=O)N3CCCCC3)CC2)c2ncccc2c1 [Example 13, 6-butyl-8-({1-[2-oxo-2-(1-piperidinyl)ethyl]-4-piperidinyl}oxy) quinoline]
< 10 nM	> 3160 nM	CCCCc1cc(OC2CCN(CCCCC(=O)N3CCCCC3)CC2)c2ncccc2c1 [Example 31, 6-butyl-8-({1-[5-oxo-5-(1-piperidinyl)pentyl]-4-piperidinyl}oxy) quinoline]
< 10 nM	> 316 nM	CCCCc1cc(OC2CCN(CCCCCNC(=O)C3CCCCC3)CC2)c2ncccc2c1 [Example 78, N-(5-{4-[(6-butyl-8-quinolinyl)oxy]-1-piperidinyl}pentyl) cyclohexane carboxamide]
< 10 nM	> 316 nM	CCCCc1cc(OC2CCN(CCCC(=O)NC(C)(C)C)CC2)c2ncccc2c1 [Example 6, 4-{4-[(6-Butyl-8-quinolinyl)oxy]-1-piperidinyl}-N-(1,1-dimethylethyl)butanamide]
< 100 nM	> 316 nM	CCCCCCc1cc(OC2CCN(C[C@H]3CC[C@H](C(=O)NCCCOC)CC3)CC2)c2ncccc2c1 [Example 58, trans-4-({4-[(6-hexyl-8-quinolinyl)oxy]-1-piperidinyl}methyl)-N-[3-(methyloxy)propyl]cyclohexane carboxamide]
< 100 nM	> 3160 nM	CCCCc1cc(OC2CCN(CCCC(=O)N3CCCCC3)CC2)c2ncccc2c1 [Example 24, 6-butyl-8-({1-[4-oxo-4-(1-piperidinyl)butyl]-4-piperidinyl}oxy)quinoline]
< 100 nM	> 316 nM	CCCCCc1cc(OC2CCN(CCCC(=O)N(CC)CC)CC2)c2ncccc2c1 [Example 89, N,N-Diethyl-4-{4-[(6-pentyl-8-quinolinyl)oxy]-1-piperidinyl}butanamide]
